According to patent US20110021471A1, “REDUCING Abeta42 LEVELS AND Abeta AGGREGATION” (priority 2007, published 2011):
Read-outs that look alike come from different tables or passages of the source.

How the values were obtained:
human H4 cells = experiment: Steroid compounds, Aβ42 levels in human H4 cells (FIG. 2, FIG. 21); type: cell-based
From the text: FIG. 21 contains the results of an in vitro assay, studying the effects of various steroid compounds on Aβ42 levels in human H4 cells. Chemical names and molecular weights of each steroid are presented.
Agents having the ability to modulate Aβ42 levels were identified as follows. […] It was hypothesized that it might be possible to convert Aβ42 increasing agents into Aβ42 reducing agents by incorporating an acidic group into the core structure. For steroids, multiple steroids containing an acidic group were obtained from Steraloids Inc. and screened for the ability to reduce Aβ42 levels.

γ-secretase = γ-secretase (Homo sapiens, UniProt P49768); experiment: GSM activity of compounds that bind Aβ or Aβ amyloid (cell-based or cell-free γ-secretase assays, FIG. 12); conditions: two doses (10 and 100 μM)
Method: A literature search was performed to identify compounds reported to bind to the Aβ peptide directly or amyloid. These candidates were initially tested in cell-based assays or cell-free in vitro γ-secretase assays at two doses (10 and 100 μM).
Finally, X-34 was tested for its ability to modulate Aβ42 amounts in an APP transgenic mouse (Tg2576).

[1] = test system: Human H4 neuroglioma cells expressing wild-type APP695 protein or CTF105; experiment: Cell-based screens for amyloid-β modulation (H4 cells, ELISA); conditions: H4 cells expressing APP
From the text: Photoaffinity labelling. All experiments used the following general protocol. […] Cell-based screens for amyloid-β modulation. […] Statistical analysis.

SMILES	Aβ42 levels (acidic steroids) (human H4 cells)	Aβ42 levels (acidic steroids) (human H4 cells; listed as 5-β-cholanic acid)	Aβ42 levels (acidic steroids) (human H4 cells; listed as 5β-Cholanic acid)	GSM activity (γ-secretase)	Aβ42 levels [1]
C[C@H](CCC(=O)O)[C@H]1CC[C@H]2[C@@H]3[C@H](O)C[C@@H]4C[C@H](O)CC[C@]4(C)[C@H]3CC[C@]12C [5β cholanic acid 3a, 7a diol]	does not	–	–	–	–
C[C@H](CCC(=O)O)[C@H]1CC[C@H]2[C@@H]3CC[C@@H]4CCCC[C@]4(C)[C@H]3CC[C@]12C [5β-cholanic acid]	one of the more potent Aβ42 reducing agents	most potent Aβ42 lowering GSM	potently reduces Aβ42	–	–
CNc1ccc(-c2nc3ccccc3s2)cc1 [BTA-1]	–	–	–	did not act as GSMs	–
O=S(=O)(O)c1cccc2c(-c3ccc(Nc4ccccc4)c4c(S(=O)(=O)O)cccc34)ccc(Nc3ccccc3)c12 [Bis-ANS, 4,49-dianilino-1,19-binaphthyl-5,59-disulphonic acid]	–	–	–	Aβ42-lowering	decrease
O=C1NC(=O)c2cc(Nc3ccccc3)c(Nc3ccccc3)cc21 [DAPH, 4,5-dianilinophthalimide]	–	–	–	Aβ42-raising	selectively increase
